Reference: the NIST ThermoML archive (doi:10.1021/je050261u)

Assay: xn = mol fraction of the nth substance listed
Conditions: Liquid, Vibrating tube method

CCCCCCC [heptane] + CCO
mass density [kg/m3]
Conditions | x2 = 0 | x2 = 0.125 | x2 = 0.25 | x2 = 0.375 | x2 = 0.5 | x2 = 0.625 | x2 = 0.75 | x2 = 0.875
293.15 K, 100 kPa | 683.9 | 688.1 | 694.5 | 701.9 | 711.2 | 722.6 | 737.9 | 758.9
293.15 K, 5000 kPa | 688.2 | 692.5 | 699 | 706.4 | 715.7 | 727.1 | 742.3 | 763.2
293.15 K, 10000 kPa | 692.5 | 696.8 | 703.3 | 710.9 | 719.9 | 731.4 | 746.6 | 767.4
293.15 K, 15000 kPa | 696.5 | 701 | 707.3 | 714.9 | 724 | 735.4 | 750.7 | 771.4
293.15 K, 20000 kPa | 700.5 | 704.9 | 711.3 | 718.9 | 728 | 739.4 | 754.6 | 775.3
293.15 K, 25000 kPa | 704.1 | 708.5 | 714.9 | 722.4 | 731.6 | 743 | 758.3 | 778.9
293.15 K, 30000 kPa | 707.5 | 712 | 718.4 | 725.9 | 735.1 | 746.5 | 761.7 | 782.3
293.15 K, 35000 kPa | 710.8 | 715.4 | 721.7 | 729.3 | 738.5 | 749.9 | 765.1 | 785.6
293.15 K, 40000 kPa | 714 | 718.4 | 725 | 732.5 | 741.7 | 753.1 | 768.4 | 788.9
293.15 K, 45000 kPa | 716.9 | 721.5 | 728 | 735.5 | 744.9 | 756.2 | 771.4 | 791.9
293.15 K, 50000 kPa | 719.8 | 724.5 | 731.1 | 738.5 | 747.9 | 759.3 | 774.5 | 794.9
293.15 K, 55000 kPa | 722.7 | 727.4 | 733.9 | 741.4 | 750.8 | 762.2 | 777.4 | 797.8
293.15 K, 60000 kPa | 725.4 | 730.2 | 736.7 | 744.2 | 753.6 | 765 | 780.2 | 800.6
293.15 K, 65000 kPa | 728 | 732.9 | 739.4 | 746.9 | 756.3 | 767.8 | 782.9 | 803.4
303.15 K, 100 kPa | 675.1 | 679.8 | 685.3 | 692.7 | 701.9 | 713.4 | 728.9 | 749.9
303.15 K, 5000 kPa | 680 | 684.8 | 690.2 | 697.6 | 706.9 | 718.3 | 733.7 | 754.6
303.15 K, 10000 kPa | 684.4 | 689.3 | 694.8 | 702.1 | 711.4 | 722.8 | 738.2 | 759
303.15 K, 15000 kPa | 688.9 | 693.8 | 699.3 | 706.8 | – | – | – | –
